Here are results for two molecules from patent US9643917B2, “Water-soluble propofol derivatives and uses thereof” (JIANGSU NHWALUOKANG PHARMCEUTICAL RESEARCH AND DEVELOPMENT …, priority 2014, dated 2017).

One series has as its system KM mice. To be noted: for TI Mouse: TI=LD50/ED50, mouse; for Mouse ED50: disappearance of righting reflex, caudal vein injection.
For series [1] the following is noted: rat plasma, 37° C., HPLC.
Protocol: (§1) 0.1 ml samples were taken from each of the solutions, added respectively to 1 ml of blood plasma of rabbit (taken from New Zealand white rabbits, treated according to conventional methods, anticoagulated with heparin) or 1 ml of blood plasma of rat (taken from live SD rats, processed according to conventional methods, anti coagulated with heparin), homogeneously mixed, and placed in a thermostatic water bath at 37° C. for incubation with time being recorded. Samples were taken at different time points after the experiment began, and 2 ml of acetonitrile was immediately added. The samples were shaken and centrifuged for 5 min (15,000 rpm), and the supernatant was then taken for HPLC analysis.
In another series the test system is SD rats. To be noted: for TI Rat: TI=LD50/ED50, rat; for Rat ED50: disappearance of righting reflex, caudal vein injection.
For series [2], the system named is New Zealand White rabbits. The note with it: TI=LD50/ED50, rabbit.
Protocol: (§2) Test samples for the experiment on rabbit were formulated to have corresponding concentrations based on the results from a preliminary test. […] Rats and mice were administered with samples having a fixed concentration of drugs, while the volume of administration altered according to actual situation. The volume of administration to rabbits was 1 mL/kg body weight.
(§3) ED50 and LD50 values concerning anesthesia were determined using a sequential method. Healthy KM mice (male), SD rats (male) and New Zealand White rabbits were used for test. […] For rabbits, the compounds were administered by injection at a constant rate via ear vein for 30 seconds. Before the test, a preliminary test was conducted to determine an approximate dosage (volume of administration) that leads to anesthetization (or death) of animals, which was set as the middle dosage in the formal test. […] The disappearance of righting reflex or death was used as indicators of pharmacological efficacy or toxicity, respectively. The formal test began with the administration of the middle dosage. If animals were anesthetized, a lower dosage was administered; if animals were not anesthetized, a higher dosage was administered, until the cycle was repeated for 3-4 times. LD50 and ED50 were calculated by a sequential method aot425 software. TI was calculated according to the following equation: TI=LD50/ED50.
For series [3] the following is noted: rabbit plasma, 37° C., HPLC.
Protocol: as §1
For the next series, the system named is Kunming mice. The note with it: tail intravenous injection, n = 5.
The nature of another series: physchem. The note with it: physiological saline, saline or isotonic.
The mark [4] stands for this setting: 3 mg/ml solution, confirmation test.
Setting [5] is: 3 mg/ml solution, first test (*).
[6] abbreviates: 6 mg/ml solution, confirmation test.
Where [7] appears, read: 6 mg/ml solution, first test (*).
The mark [8] stands for this setting: dosage 2 * ED50, 3 mg/ml solution.
Where [9] appears, read: dosage 2 * ED50, 6 mg/ml solution.

For orientation: solubility means the dissolved amount per volume that the medium holds. Read a high solubility as much dissolved substance.

Each structure is given as a SMILES string. Structures can show the parent of a compound that is named as a salt. Where two headings read alike, the source gives them in different places. Marks after values point to notes of the source that are not given here.

Protocol for KM mice: as §2, §3
Protocol for Kunming mice: Rats and mice were administered with samples having a fixed concentration of drugs, while the volume of administration altered according to actual situation. The volume of administration to rabbits was 1 mL/kg body weight.
The periods during which the righting reflex of mice disappeared (latent period) and recovered (persistent period) were recorded.
Protocol for SD rats: as §2, §3

`CC(C)c1cccc(C(C)C)c1OC(=O)C(F)CC(=O)[O-].[Na+]` [F7, Propofol-2-(R)-fluorobutyrate monoester sodium salt]: the “TI Mouse” value with KM mice (setting [4]) is recorded as 2.6; in the series with KM mice (setting [5]) it was 2.8*; in the series with KM mice (setting [6]), 3.1; with KM mice (setting [7]) it was 2.4*. For the same molecule, the “Mouse ED50” value in the series on KM mice (setting [4]) stood at 19.2 mg/kg; with KM mice (setting [5]) it was 21.4 mg/kg; in the series with KM mice (setting [6]), 18.1 mg/kg; in the series on KM mice (setting [7]) it was 20.7 mg/kg. In addition, the “Dissociation percent 5 s” value in series [1] was found to be 58.8%. The figures for the “Dissociation percent 15 s” value in series [1] and in series [3] were 71.3% and 46.3%, respectively. For the same molecule, the results for the “Dissociation percent 30 s” value in series [1] and in series [3] were 85.4% and 72.8%, respectively. Besides, the “TI Rat” value in the series on SD rats (3 mg/ml solution) stood at 3.0; in the series on SD rats (6 mg/ml solution), 3.5. Further, the “Rat ED50” value turned out to be 15.7 mg/kg in the series on SD rats (3 mg/ml solution) and 12.5 mg/kg with SD rats (6 mg/ml solution). This molecule returned a TI index in series [2] of 2.6. Also, the “Latent Period” value in the series with Kunming mice (setting [8]) is reported as 20.2 ± 0.6 s; in the series on Kunming mice (setting [9]), 16.2 ± 2.2 s. Moreover, the Persistent period with Kunming mice (setting [8]) was determined as 335.5 ± 218.1 s; in the series on Kunming mice (setting [9]), 517 ± 231 s.
`CC(C)c1cccc(C(C)C)c1OC(=O)C(F)CCN(C)C` (racemic) [E1, Propofol 4-(N,N-dimethyl)amino-2-(R,S)-fluorobutyrate hydrochloride] had a solubility in “physchem” of over 20 mg/mL. In series [1], the “Dissociation percent 5 s” value was 75.1%, the “Dissociation percent 15 s” value is 83.2% and the “Dissociation percent 30 s” value is recorded as 96.7%. Also, in series [3], the “Dissociation percent 15 s” value was 67.5% and the “Dissociation percent 30 s” value was 85.5%.
